# Details: pampa; pH 5.0; 30.0 min; 50.0 µM
row,Structure (SMILES),Papp [×10⁻⁶ cm/s]
1,CN(C)c1cccc(-c2cnc(Nc3cccnc3)c3c2CCO3)c1,> 1000
2,CCc1cccc(NC(=O)c2cc(-c3ccc[nH]3)n[nH]2)c1,90.2
3,O=C(Nc1ccc(OC(F)(F)Cl)cc1)c1cnc(N2CC[C@@H](O)C2)c(-c2ccn[nH]2)c1,16.8
4,COc1ccccc1-c1nnc2sc(-c3ccc(N(C)C)cc3)nn12,> 1000
5,Oc1ccc(-c2nc(C3CC3)nc3c2CCN(CC2CCCCC2)CC3)cc1,190
6,C=C1[C@@H](C)C2[C@H](Cc3ccccc3)NC(=O)[C@@]23C(/C=C/C[C@H](C)C[C@@](C)(O)/C=C/[C@@H]3OC(C)=O)[C@@H]1O (stereo partly drawn),55
7,C=CCc1ccc(O)c(-c2ccc(O)c(CC=C)c2)c1,446
8,COc1cc2ncnc(Nc3ccc(Oc4ccccc4)cc3)c2cc1OC,981
9,COc1ccc(-c2cc(-c3ccccc3)nc(SCC(=O)Nc3ccccc3C)c2C#N)cc1,587
10,COc1ccc(C(=O)N2CCCC(c3nn(-c4ccc(OC)cc4)c(=O)[nH]3)C2)cc1 (stereo not drawn),255
11,O=C(NCCCNc1nc(Nc2cccc(CN3CCOCC3)c2)ncc1C1CC1)C1CCC1,8.82
12,Cc1ccc(C(=O)NC2CCN(c3cnn(CC4CC4)c(=O)c3)CC2)cc1C,498
13,CCOC(=O)c1ccc(NC(=O)N2Cc3[nH]cnc3C[C@H]2c2nc(C(C)C)no2)cc1,16.2
14,CCC(CC)c1cc([C@H]2CN3CC[C@H]2C[C@@H]3CNS(=O)(=O)c2cccs2)nc(-c2ccncc2)n1,750
15,Cc1ccc(NC2=C(c3ccc(C(F)(F)F)cc3)C(=O)c3ccccc32)cc1F,574
16,O=C(c1ccccc1)N1CCC(c2nn(-c3ccc(F)cc3)c(=O)[nH]2)CC1,521
17,COc1ccc(CN2CCNc3cc(Nc4ccccc4)ncc3C2)cn1,2.38
18,COCC(C)NCc1cc2ccc(OC)cc2nc1N1CCN(c2ccc(F)cc2)CC1 (stereo not drawn),576
19,Cc1ccc(NC(=O)c2cc(-c3ccc[nH]3)n[nH]2)cc1F,235
20,Cn1c(=O)c2c(-c3ccc(Cl)cc3)n(CCc3ccccc3)cc2n(C)c1=O,762
21,CNc1nc2c(s1)C(c1ccc(Cl)cc1)CC(=O)N2 (stereo not drawn),204
22,CCC1=Nc2cc(C(=O)NCCCOC)ccc2Sc2ccc(Br)cc21,> 1000
23,COc1ccc(C2c3c(oc4ccc(Cl)cc4c3=O)C(=O)N2CCCN(C)C)cc1OC (stereo not drawn),7.76
24,COC(=O)c1ccc(O)c2ncc(N3CCN(C)CC3)cc12,80.1
25,O=C(Cc1ccc(O)cc1)N1CC(CNc2ccccc2)C2(C1)CN(c1ccccc1)C2 (stereo not drawn),616
26,CCOc1ccc(-c2nnc(SCC(=O)NCc3ccccc3Cl)o2)cc1,2

row,Structure (SMILES),Papp [×10⁻⁶ cm/s]
1,O=C(NCCc1cnc[nH]1)c1ccc(-c2ncc3cnc(-c4cccc(F)c4)cn23)cc1,5.09
2,CCN(CC)C(=O)c1coc(COc2ccc3c(c2)C(c2cccc(F)c2)N(C(=O)C(C)C)CC3)n1 (stereo not drawn),> 1000
3,CC(=O)NCCNC[C@@H]1C=C(C)[C@H](Cc2nnc(-c3ccccc3)o2)C[C@H]1C(C)C,25.8
4,Cc1ccc(C)c(CN2C(=O)c3ccccc3S(=O)c3ccc(C(=O)N4CCN(c5ccccc5F)CC4)cc32)c1 (stereo not drawn),932
5,O=C1Nc2ccc(-c3cccc(C(F)(F)F)c3)cc2C(=O)N2CCN(C(=O)COc3ccccc3)C[C@H]12,859
6,Nc1c(C(=O)Nc2ccc(Cl)cc2)sc2nc3c(cc12)N1CCC3CC1,140
7,CCOc1ccccc1C(=O)Nc1ccncc1C(=O)Nc1cccc(S(=O)(=O)C(F)(F)F)c1,139
8,Cc1c(CN(C)c2cc(C3CC(O)C3)nc(N)n2)[nH]c2ccccc12 (stereo not drawn),44.8
9,O=C(NC1CC1)C1CCCN1C(=O)c1cccc(-c2ccccn2)c1 (stereo not drawn),76.5
10,CCOC(=O)Nc1ccc(NCc2ccc(F)cc2)nc1N,142
11,O=C1CCc2cc(S(=O)(=O)Nc3ccc(F)c(Cl)c3)ccc2N1,663
12,Cc1noc(C)c1Cc1ccc(C(=O)N2CCc3c(nc4cc(-c5ccccc5)[nH]n4c3=O)C2)o1,9.03
13,Cc1ccc2nc(-c3cc(NC(=O)c4ccc5c(c4)OCCO5)ccc3Cl)oc2c1,28.6
14,Cc1ccc(-n2nc3c(=O)n(CCCC(=O)NC(C)c4ccccc4)nc(C)c3c2C)cc1 (stereo not drawn),562
15,CN1CCCC(CC2c3ccccc3Sc3ccccc32)C1 (stereo not drawn),> 1000
16,CCN(CC)CCCC(C)Nc1cc(/C=C/c2ccccc2Cl)nc2cc(Cl)ccc12 (stereo not drawn),82.9
17,CN1CCN(C(=O)Cc2c[nH]c3ncc(-c4ccccc4Oc4ccccc4)cc23)CC1,578
18,Clc1cccc(COc2cncc(N3CCNCC3)n2)c1,742
19,Cn1c(CN2CCCCC2)nc2cc(NC(=O)c3cccc(Br)c3)ccc21,178
20,Cc1cc(Br)ccc1NC(=O)C(NS(=O)(=O)c1cccs1)c1ccccc1 (stereo not drawn),79.4
21,CCOC(=O)C1CCN(c2ncc(-c3ccc4c(c3)OCCCO4)s2)CC1,> 1000
22,COc1cccc(CN2CCNc3cc(Nc4ccccc4)ncc3C2)c1,187
23,CC(C)n1cc(-c2ccc3c(c2)N(C)CC3)c2c(NS(=O)(=O)c3ccn(C)n3)ccnc21,> 1000
24,COc1ccc(CNC(=O)CCCn2nc(C)c3c(C)n(-c4ccc(C)cc4)nc3c2=O)cc1OC,159
25,CN1CCCN(C(c2ccccc2)c2ccc(Cl)cc2)CC1 (stereo not drawn),> 1000
26,COc1ccccc1Nc1ccnc(N2CCN(C(=O)c3ccccc3Cl)CC2)n1,35.8

row,Structure (SMILES),Papp [×10⁻⁶ cm/s]
1,COc1ccc(-n2nc(C)c([C@@H]3C=C[C@@H](NCc4ccc(N(C)C)cc4)C3)c2C)cc1,> 1000
2,COc1cccc(Cn2c(=O)n(-c3cccc(Cl)c3C)c(=O)c3c4c(sc32)CN(C(C)=O)CC4)c1,> 1000
3,Cc1ccc2c(c1)N(S(=O)(=O)c1cc(-c3onc(C)c3C)ccc1C)CCO2,226
4,CSc1ccccc1N1CCN(CCCCCC(=O)NC2CCCc3ccccc32)CC1 (stereo not drawn),628
5,CCc1ccc(OC(C)C(=O)N2CCC(c3nc4ccccc4o3)CC2)cc1 (stereo not drawn),> 1000
6,Cc1n[nH]c(C)c1CCc1nc2c3ccccc3nc(SCC(=O)Nc3ccc(F)cc3)n2n1,383
7,Cc1ccc(Cl)cc1NS(=O)(=O)c1cc2c(cc1F)NC(=O)CC2,617
8,Nc1nc2c(s1)C(c1ccc(F)cc1F)CC(=O)N2 (stereo not drawn),5
9,Cc1cnc(-c2ccccc2C(C)C)nc1NCc1ccc(-n2ccnn2)cc1,663
10,CS(=O)(=O)CCNCc1ccc(-c2ccc3ncnc(Nc4ccc(OCc5cccc(F)c5)c(Cl)c4)c3c2)o1,69.7
11,COc1ccc2[nH]c(C[C@@H]3C[C@@H](C(C)C)[C@H](CNCc4ccccc4O)C=C3C)nc2n1,739
12,Nc1c(-c2ccncc2)cc[nH]c1=O,2.72
13,Cc1onc(-c2ccc(F)cc2)c1COc1ccc(C(=O)N2CCS(=O)(=O)CC2)cn1,291
14,CCS(=O)(=O)c1ncc(N(Cc2ccc(F)cc2)Cc2ccco2)c(C(=O)Nc2cc(C)ccc2C)n1,696
15,OC1(c2ccc(Cl)cc2)CCN(Cc2c[nH]c3ccccc23)CC1,419
16,O=C(Nc1ccc(Oc2ccnc3[nH]ccc23)c(F)c1)c1cccn(-c2ccc(F)cc2)c1=O,9.36
17,Cc1cccc(-n2ncc3c2CCCC3NC(=O)c2c(F)ccc(F)c2F)c1C (stereo not drawn),552
18,NC(=O)C1CCN(c2nccc(-c3ccc4c(c3)OCCO4)n2)CC1,191
19,CC(=O)c1c(C)oc2ccc(N(C(=O)Oc3ccccc3)S(=O)(=O)c3ccccc3)cc12,> 1000
20,COc1ccccc1CNC(=O)CCCn1nc(C)c2c(C)n(-c3ccc(C)cc3)nc2c1=O,237
21,c1cc(-c2cc(-c3ccncc3)c3cncn3c2)c2cc[nH]c2c1,21.7
22,COc1ccccc1Nc1cnc2ccc(-c3ccc(OC)c(OC)c3)nn12,621
23,CCOc1ccccc1C(=O)Nc1ncccc1C(=O)Nc1cccc(S(=O)(=O)C(F)(F)F)c1,656
24,CCCCNC(=O)CN1CCN(c2ncc(NC(=O)c3ccc(Cl)cc3)cc2C(=O)O)CC1,1.92
25,COc1cc(Cl)c(C)cc1NS(=O)(=O)c1c(C)nc2sccn2c1=O,802
26,Cc1ccc(S(=O)(=O)Nc2ccccc2C(=O)Nc2nc(-c3ccccc3)cs2)cc1,> 1000

row,Structure (SMILES),Papp [×10⁻⁶ cm/s]
1,CNc1nc(-c2ccc3c(N)n[nH]c3c2)cc(N2C[C@@H](C(=O)NC3CCCCC3)CC[C@H]2C)n1,26.1
2,Cc1cc(C)nc(NS(=O)(=O)c2ccc(NC(=S)NC(=O)COc3ccc(Br)cc3Cl)cc2)n1,> 1000
3,Fc1ccc(N2CCCN(CC3[C@H]4CNC[C@@H]34)CC2)cc1 (stereo partly drawn),48.8
4,CCN1CCCC1CNC(=O)c1cc(S(=O)(=O)CC)c(N)cc1OC (stereo not drawn),6.63
5,COC(=O)c1cc2occc2n1Cc1nc(-c2ccc(C)cc2)oc1C,257
6,CCCN1C(CC(C)C)=NS(=O)(=O)c2cc(NC(=O)c3ccco3)ccc21,239
7,O=C(Cc1c[nH]c2ncc(-c3ccc(Cl)cc3)cc12)NCc1cccnc1,818
8,Cc1ccc(C)c(CN2CCC(CNC(=O)Nc3ccc(Br)cc3F)CC2)c1,979
9,COc1cc(C(=O)NC2CCCc3c2[nH]c2ccccc32)cc(OC)c1OC (stereo not drawn),926
10,FC(F)(F)c1ccccc1-c1nc(NCc2ccc(-c3cccnc3)cc2)c2ccccc2n1,712
11,O=C(NCC1CCOCC1)C1CC(=O)N(c2n[nH]c3cc(Br)ccc23)C1 (stereo not drawn),10.6
12,Cc1nc([C@](C)(O)CO)sc1-c1cnc(N)c(O[C@H](C)c2cc(F)ccc2-n2nccn2)c1,322
13,CCC(CC)c1cc([C@H]2CN3CC[C@H]2C[C@@H]3CNC(C)=O)nc(-c2ccncc2)n1,14.9
14,CCOc1ccc(C2C(C(=O)Nc3ccccc3OC)=C(C)Nc3c(C(=O)Nc4cccc(C)c4)cnn32)cc1 (stereo not drawn),170
15,Cc1ccc(CN2CCOC[C@H]2c2ncc(-c3cccc(F)c3)[nH]2)cc1,995
16,CCOc1cc(-c2nccc3cc(OC)c(OC)cc23)cc(OCC)c1OCC,> 1000
17,Fc1ccccc1-c1nc(NCc2ccc(-c3cccnc3)cc2)c2ccccc2n1,> 1000
18,CN1CCN(C2=Nc3ccccc3Sc3ccc(Cl)cc32)CC1,887
19,COc1ccc(Nc2cnc3ccc(-c4ccc(OC)c(OC)c4)nn23)cc1,821
20,CCCCc1ccc(NC(=O)c2ccc3c(c2)N(S(C)(=O)=O)CC3)cc1,385
21,CC1=C[C@@H](CNC(C)C)[C@H](C(C)C)C[C@H]1Cc1nnc(-c2ccncc2)o1,41.3
22,COc1ccc(S(=O)(=O)N(CC(=O)Nc2ccc(C)cc2)c2ccc(C)cc2)cc1OC,663
23,CCC1=Nc2cc(C(=O)NC3CCCC3)ccc2Sc2ccc(Cl)cc21,640
24,CNC(=O)c1ccccc1Nc1nc(Nc2ccc(N3CCOCC3)cc2OC)ncc1Cl,145
25,CSc1nn(Cc2cccc(C)c2)c(N)c1S(=O)(=O)c1ccccc1,878

# From PubChem BioAssay AID1645871
